{"source": "patent US10807958B2", "about": "“1,4-bis(3-aminopropyl)piperazine derivative and its use” (INSERM (Institut National de la Sante et de la Recherche …, priority 2015, dated 2020)", "key": {"Thy-Tau22 mice": {"tested_on": "Thy-Tau22 mice", "experiment": "Immunohistochemical measurement of tau pathology (NFT burden) in hippocampal CA1", "type": "in vivo, mouse", "details": "Thy-Tau22, 0.5 mg/kg vs untreated, FIG. 5", "text": "Wild-type C57BL/6J animals of 3 months were purchased at Charles Rivers Laboratories (France) and were allow to acclimate in the animal facility for at least one week before any treatment. Thy-Tau22 transgenic colonies (C57BL/6J genetic background) were obtained by crossing heterozygous Thy-Tau22 males with C57BL/6 WT females. […] In this model, a progressive development of NFT is observed in the hippocampus and amygdala, which parallels behavioral impairments (Schindowski et al., 2006). Furthermorever, in the hippocampus, hyper- and abnormally phosphorylated Tau species accumulate within the somato-dendritic area (Schindowski et al., 2006). For animal treatment, animals were randomly distributed and the compound of Formula I was given in the drinking water at final concentration of 0.5 or 1 mg/kg. Drinking bottles were changed once per week, volume consumption was measured along the treatment period. Food consumption and body weight were assessed. […] Quantification of labeled neurons was achieved using the NIH-Image J software and expressed in arbitrary units (A.U). The burden of NFT in the hippocampal CA1 was investigated by immunohistochemistry and quantification. […]"}, "[1]": {"tested_on": "Tau proteins of Thy-Tau22 animals (hippocampus)", "experiment": "1D SDS-PAGE and Western-blot of Tau expression, catabolites and phosphorylation in hippocampus", "type": "in vivo, mouse", "details": "treated vs untreated, FIG. 6", "text": "Wild-type C57BL/6J animals of 3 months were purchased at Charles Rivers Laboratories (France) and were allow to acclimate in the animal facility for at least one week before any treatment. Thy-Tau22 transgenic colonies (C57BL/6J genetic background) were obtained by crossing heterozygous Thy-Tau22 males with C57BL/6 WT females. […] In this model, a progressive development of NFT is observed in the hippocampus and amygdala, which parallels behavioral impairments (Schindowski et al., 2006). Furthermorever, in the hippocampus, hyper- and abnormally phosphorylated Tau species accumulate within the somato-dendritic area (Schindowski et al., 2006).\nFor animal treatment, animals were randomly distributed and the compound of Formula I was given in the drinking water at final concentration of 0.5 or 1 mg/kg. Drinking bottles were changed once per week, volume consumption was measured along the treatment period. Food consumption and body weight were assessed. In wild-type animals the pilot study of drug treatment was performed for one month to establish the innocuousness of the treatment with the compound of Formula I. This was based on the physiological, social and behavioural assessments. Thy-Tau22 males were treated for 4 months starting at 3 month old. All protocols were approved by the local ethics committee (n^∘342012, CEEA).\nAfter behavioral assessment, blood was collected in 1.5 mL polypropylene tubes (Eppendorf, France), mice were sacrificed by cervical dislocation to avoid any modifications instrumental to anesthesia (Lefreche et al. 2012). Hippocampi and cortices were dissected and snap frozen in 1.5 mL tubes (Eppendorf). Tissue was homogenized in Tris-HCl buffer (10 mM pH 7.4) containing 320 mM sucrose, protease inhibitors (Complete mini EDTA-free, Roche) sonicated and spun at 12,000×g for 10 min at 4° C. The supernatant was recovered, protein concentration was achieved using the BCA Protein quantification assay kit (Pierce) according to the manufacturer instruction. The supernatant was further processed for biochemical analyses or kept at −80° C. For 1D or 2D gels, the same lysis buffer was used. Thus, equal amount protein in Tris buffer were added with a solution containing 7M urea, 2M thiourée with 2% SDS and sonicated at 60 Hz 30 pulses.\nFor the western-blot analysis of Tau proteins, SDS-PAGE was performed according to the manufacturer's instructions using Bis-Tris 4-12% gradient acrylamide gel (NuPage® Bis-Tris PreCast 12 wells, Life Technologies). The apparent molecular weights were calibrated using the molecular weight markers (Novex and Magic Marks, Life Technologies). Electrophoresis was performed under a continuous tension of 100V/per gel for 1 h. Proteins were reversibly stained with Ponceau Red to check the quality of the efficacy of protein transfer. For western-blotting, the membranes were blocked in 25 mM Tris-HCl pH 8.0, 150 mM NaCl, 0.1% Tween-20 (v/v) (TBS-T) and 5% (w/v) of skimmed milk (TBS-M) for 30 min and they were incubated overnight at 4° C. the primary antibody. The nitrocellulose membrane is rinsed three times by gentle shaking in TBS-T during 10 min each. […]\nBrain proteins (of hippocampus) from untreated and Compound I⋅HCl treated thy-tau22 animals were resolved by 1D SDS-PAGE and Tau proteins were labeled with Pan-Tau antibodies (N-ter, C-ter). Catabolites detected with these antibodies are indicated as f-Nter and f-Cter. […]"}, "[2]": {"details": "ratio phospho-epitope/total hTau"}}}
{"smiles": "CC(C)CN(CCCN1CCN(CCCNc2c3c(nc4ccccc24)CCCC3)CC1)CC(C)C.Cl", "note": "[Compound I⋅HCl, N-[3-(4-{3-[Bis(2-methylpropyl)amino]propyl}piperazin-1-yl)propyl]-1,2,3,4-tetrahydroacridin-9-amine hydrochloride]", "values": [{"measurement": "AT8 immunostaining", "setting": "Thy-Tau22 mice", "result": "no significant differences"}, {"measurement": "average surface of staining after AT100 staining", "setting": "Thy-Tau22 mice", "result": "significantly reduced"}, {"measurement": "Tau C-terminal catabolites products at 43 kDa", "setting": "[1]", "result": "significantly increased"}, {"measurement": "Tau N-terminal catabolites", "setting": "[1]", "result": "significantly decreased"}, {"measurement": "Tau phosphorylation at other phospho-sites (pSer199, pSer262, pSer422, Tau-1)", "setting": "[1]", "result": "not significantly modified"}, {"measurement": "Tau phosphorylation at phospho-site 396", "setting": "[1]; [2]", "result": "significant reduction"}, {"measurement": "Tau phosphorylation at phospho-site 404", "setting": "[1]; [2]", "result": "significant reduction"}]}
